These results are taken from PMC11110795, “Design, synthesis and antimycobacterial activity of imidazo[1,5-a]quinolines and their zinc-complexes” (RSC Medicinal Chemistry, 2024).

One data set concerns various Mtb strains. On the set-up: method as in PMID 27654337, PMID 29900893, PMID 36934122, PMID 32750539. The settings on record: cited from earlier work.
In data set [1] the test system is Septoria tritici MUCL45408. Kind of data set: MIC, BacTiter-Glo ATP quantification. The format is cell-based. As to conditions: Septoria tritici MUCL45408, PDB medium, 4 days, BacTiter-Glo, n=3, read-out: MIC Str.
For data set [2], the system named is Mycobacterium tuberculosis H37Ra. Kind of data set: MIC, BacTiter-Glo ATP quantification, surrogate Mtb strain. It counts as cell-based. As to conditions: Mycobacterium tuberculosis, H37RA, 168 h, read-out: MIC Mtb, Mycobacterium tuberculosis H37Ra, 7H9-palmitate, 7 days, BacTiter-Glo, n=3. The method, then: The antimicrobial effect of the 21 synthesized compounds was initially accessed against a panel of 4 microbial indicator strains (Escherichia coli ATCC35218, Staphylococcus aureus ATCC33592, Septoria tritici MUCL45408 and Mycobacterium tuberculosis H37Ra). Cytotoxicity was investigated using an epithelia cell line from human lung carcinoma (Calu-3).
The minimum inhibitory concentration (MIC) of the […] compounds 5a-i, 6a-b,7a, 8a and C1-8 was determined as previously described with only minor changes. 6,7 Briefly, the cell density of an overnight cultures of Escherichia coli ATCC35218 and Staphylococcus aureus […] was diluted to 5 × 10^5 cells/mL in cation adjusted Mueller Hinton II medium (Becton Dickinson, Sparks, NV, USA) and distributed into 96-well plates. Three 12-point dilution series of rifampicin, tetracycline and gentamicin ranging from 64 - 0.03 µg/mL (all Sigma Aldrich, St. Louis, MO, USA), respectively, were used as positive controls. All tested compounds were dissolved in dimethyl sulfoxide (DMSO, Carl Roth GmbH + Co., Karlsruhe, Germany) and tested in triplicate at the same concentrations as the positive controls.
Bacterial suspensions without test compound or positive control were used as negative controls.
Medium background was averaged from 5 replicates. Assay incubation was done at 37°C, 180rpm and 85% relative humidity. The turbidity of each well was measured with a microplate spectrophotometer at 600 nm (LUMIstar® Omega BMG Labtech, Ortenberg, Germany). Growth inhibition was calculated relative to the absorption of the controls.
For S. tritici MUCL45408, a previously prepared spore solution was used to adjust the assay inoculum to 1 × 10^5 spores/mL in potato dextrose medium (Sigma Aldrich). Septoria assay plates were incubated for 4 days at 25°C, 180 rpm and 85% rH. Tebuconazole (Cayman Chemical Company, Ann Arbor, MI, USA) and amphotericin B (Sigma Aldrich) were used as positive control. Cell viability was evaluated via ATP quantification (BacTiter-Glo™, Promega, Walldorf, Germany) according to the manufacturer’s […]
Mycobacterium tuberculosis ITM-M006710 H37Ra (ATCC 9431) was incubated for 14 days in Middlebrook 7H9 broth (from ThermoFisher Scientific, Walthman, MA, USA) supplemented with 5.6 µg/mL palmitic acid (Sigma Aldrich), 1 mg/mL casitone (ThermoFisher Scientific), 5mg/mL BSA, 4µg/mL catalase (Sigma Aldrich), and 0.2% glycerol at 37°C, 180 rpm and 85% rH. In a first step, the culture was diluted to McFarland standard of 1, before the final inoculum density of a 1 × 10^6 cells/mL was obtained by further dilution with freshly prepared medium. Individual 12-point dilution series of rifampicin, ampicillin and gentamicin (ranging from 64-0.03 µg/mL) were used as positive controls. The assay plates were incubated for 7 days under microaerophilic conditions at 37°C/5% CO2 (BD gaspak CO2 system) and read-out was done by ATP quantification (s. above).
The MIC was defined as the minimum concentration where at least 85% growth inhibition relative to the negative control was measured. Relative inhibition for the microtiter turbidity tests (MTT) were […]
rel. inh.% = 100 * [1- (AU sample - AU Low)/(AU High - AU Low)]
AU: absorption unit at 600nm; Low: medium blank; High: negative control of maximal growth.
Accordingly, the BacTiter-Glo™ (BTG) assays were calculated as rel. inh.% = 100 * [1- (LU sample - LU Low)/(LU High - LU Low)]
AU: luminescence unit; Low: medium blank; High: negative control of maximal growth.
For Mycobacterium tuberculosis ATCC 35801 a resazurin microtiter assay was carried out as previously described8 Briefly, assay plates were set up by transferring 10 µl of compounds form a 1:2-fold dilution series in distilled and sterile water to a 96-well plate. The final assay´s concentrations range from 0.39-100 µM and as positive and negative control 5 µM rifampicin and 0.5% DMSO were used. Subsequently a bacterial suspension with Mycobacterium tuberculosis with a final OD560 of 0.0003 was prepared in […]

The test system of data set [3] is Staphylococcus aureus ATCC33592. Kind of data set: MIC, microtiter turbidity test. The format is cell-based. As to conditions: Staphylococcus aureus ATCC33592 (MRSA), MHII medium, turbidity at 600 nm, n=3, read-out: MIC Sa.
Data set [4] concerns Escherichia coli ATCC35218. Kind of data set: MIC, microtiter turbidity test. It counts as cell-based. The settings on record: Escherichia coli ATCC35218, MHII medium, turbidity at 600 nm, n=3; read-out: MIC Ec.
For data set [5], the system named is Mycobacterium tuberculosis ATCC 35801. Description: Resazurin microtiter assay, second-tier BSL-3. It counts as cell-based. On the technique in general: Alamar Blue is a resazurin reagent that responds to reducing activity.
The nature of the next data set: in vitro. As to conditions: human.

The structures appear in SMILES notation. pIC50: −log10 of the molar value. Like-named read-outs stand apart in the source and are kept apart here.

`COc1nc2ccc(Br)cc2cc1[C@@H](c1ccccc1)[C@@](O)(CCN(C)C)c1cccc2ccccc12` [bendaquiline]: the “MIC, literature reported values” in the data set on various Mtb strains was 0.03 to 1 µM.
A word on the MIC: it is the lowest concentration found to suppress growth. For orientation: inhibition means the change of the read-out against control, counted positive when it falls. What is called IC90 is the point of the concentration-response curve where the effect stands at 90%. For orientation: pIC50 means the negative decadic logarithm of the IC50, by convention in mol/L. As a reminder, the IC50 is the concentration at which inhibition is half-maximal. A low value points to higher potency. As for `c1ccc(-c2nc(-c3cc4ccccc4cn3)c3ccc4ccccc4n23)cc1` [5g], the MIC was above 144 µM in data set [1]; above 144 µM in data set [1] (Zymoseptoria tritici, 96 h); at most 2 µM in data set [2]; above 144 µM in data set [3] (ATCC 33592 / MRSA); above 144 µM in data set [3]; above 144 µM in data set [4]. In data set [5] (ATCC35801, Mtb ATCC 35801, 20 μM), this molecule displayed an inhibition at 20 µM of 82%. The IC90 stood at 132 µM in data set [5] (ATCC35801, read-out: IC90 Mtb ATCC 35801, resazurin, 7 days + 24 h) and 136 µM in data set [5] (ATCC35801, resazurin, 7 days + 24 h, read-out: IC90 Mtb ATCC 35801). Also, the pIC50 in data set [5] (ATCC35801, resazurin, 7 days + 24 h, read-out: IC50 Mtb ATCC 35801) is 4.06. Further, in “in vitro”, the IC50 at 3 days was above 100 µM.
